Experimental data reported in patent publication US10597388B2, “Pyridazinone herbicides” (FMC CORPORATION, priority 2014, dated 2020).

Tests used:
Assay type in all cases: in vivo
[1] = tested on: chickweed (common chickweed, Stellaria media); experiment: Test C greenhouse herbicide test, postemergence; conditions: for Plant response rating, Chickweed: Postemergence
Procedure, shortened: (§1)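 Ratings are visual scores from 0 (no effect) to 100 (complete control), made against controls 13–15 d after treatment. Postemergence sprays were applied in the greenhouse to plants 2–18 cm tall (1- to 4-leaf stage) in peat-moss/vermiculite potting medium.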

[2] = tested on: oat, wild (wild oat, Avena fatua); experiment: Test C greenhouse herbicide test, postemergence; conditions: Postemergence
Procedure, shortened: as §1

kochia (Kochia scoparia) = experiment: Test C greenhouse herbicide test, postemergence; conditions: Postemergence
Procedure, shortened: as §1

[3] = tested on: galium (catchweed bedstraw, Galium aparine); experiment: Test C greenhouse herbicide test, pre- and postemergence
Procedure, shortened: (§2)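 Percent-control ratings (0 none, 100 complete) came from visual comparison with controls held alongside in the greenhouse for 13–15 d. Treatments covered soil application at sowing and foliar application to young plants 2–18 cm tall.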

[4] = tested on: pigweed (Amaranthus retroflexus); experiment: as above
Procedure, shortened: as §2

[5] = tested on: velvetleaf (Abutilon theophrasti); experiment: as above
Procedure, shortened: as §2

soybean (Glycine max) = experiment: as above
Procedure, shortened: as §2

[6] = tested on: barnyardgrass (Echinochloa crus-galli); experiment: as above
Procedure, shortened: as §2

[7] = tested on: blackgrass (Alopecurus myosuroides); experiment: as above
Procedure, shortened: as §2

[8] = tested on: ryegrass, Italian (Italian ryegrass, Lolium multiflorum); experiment: as above
Procedure, shortened: as §2

[9] = tested on: nutsedge, yellow (yellow nutsedge, Cyperus esculentus); experiment: as above
Procedure, shortened: as §2

[10] = tested on: ragweed (common ragweed, Ambrosia elatior); experiment: as above
Procedure, shortened: as §2

[11] = tested on: galium (catchweed bedstraw, Galium aparine); experiment: Test A greenhouse herbicide test, postemergence
Procedure, shortened: (§3)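 Scores are visual injury ratings from 0 (no effect) to 100 (complete control) versus untreated plants, taken roughly 10 d after treatment in the greenhouse. Treatment was postemergence, on one- to two-leaf plants 2–10 cm high growing in a loam soil/sand mix.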

[12] = tested on: blackgrass (Alopecurus myosuroides); experiment: Test A greenhouse herbicide test, postemergence
Procedure, shortened: as §3

[13] = 31 g ai/ha, scale 0 to 100 (0 no effect, 100 complete control)
[14] = 125 g ai/ha, scale 0 to 100, 0 is no effect, 100 is complete control
[15] = 250 g ai/ha, scale 0 to 100, 0 no effect, 100 complete control, 13 to 15 d
[16] = postemergence, 62 g ai/ha, scale 0 to 100, 0 no effect, 100 complete control
[17] = Postemergence, 31 g ai/ha, scale 0 to 100 (0 no effect, 100 complete control)
[18] = Postemergence, 125 g ai/ha, scale 0 to 100, 0 is no effect, 100 is complete control
[19] = Postemergence, 250 g ai/ha, scale 0 to 100, 0 no effect, 100 complete control, 13 to 15 d
[20] = Preemergence, 31 g ai/ha, scale 0 to 100, 0 is no effect, 100 is complete control
[21] = Preemergence, 62 g ai/ha, scale 0 to 100, 0 is no effect, 100 is complete control
[22] = Preemergence, 125 g ai/ha, scale 0 to 100, 0 is no effect, 100 is complete control
[23] = Preemergence, 250 g ai/ha, scale 0 to 100, 0 no effect, 100 complete control
[24] = 125 g ai/ha, 0 to 100 scale where 0 is no effect and 100 is complete control

CCCC(=O)Oc1c(C)nn(C)c(=O)c1-c1c(C)sc2ccc(C)cc12 [Compound 105]
40: Plant response rating, Soybean (soybean (Glycine max); [19]) | Blackgrass plant response rating [7, 16] | Plant response rating, Ryegrass, Italian [8, 20] | Plant response rating, Nutsedge, Yellow [9, 20] | Plant response rating, Nutsedge, Yellow [9, 22]
75: Plant response rating, Velvetleaf [5, 17] | Plant response rating, Nutsedge, Yellow [9, 18]
55: Plant response rating, Blackgrass [7, 22] | Plant response rating, Nutsedge, Yellow [9, 17]
0: Plant response rating, Soybean (soybean (Glycine max); [20]) | Plant response rating, Soybean (soybean (Glycine max); [21]) | Plant response rating, Soybean (soybean (Glycine max); [22]) | Soybean plant response rating (soybean (Glycine max); [23]) | Plant response rating, Barnyardgrass [6, 20]
90: Plant response rating, Chickweed [1, 13] | Plant response rating, Oat, Wild [2, 14] | Plant response rating, Oat, Wild [2, 15] | Plant response rating, Galium [3, 21] | Plant response rating, Velvetleaf [5, 18] | Plant response rating, Velvetleaf [5, 22] | Barnyardgrass plant response rating [6, 23] | Blackgrass plant response rating [7, 23] | Plant response rating, Ryegrass, Italian [8, 18] | Plant response rating, Ryegrass, Italian [8, 21] | Plant response rating, Ryegrass, Italian [8, 22] | Plant response rating, Nutsedge, Yellow [9, 19] | Plant response rating, Ragweed [10, 17] | Plant response rating, Ragweed [10, 20] | Plant response rating, Ragweed [10, 21] | Blackgrass plant response rating ([12]; 500 g ai/ha, 0 to 100 scale, 0 is no effect, 100 is complete control)
25: Plant response rating, Barnyardgrass [6, 18] | Barnyardgrass plant response rating [6, 16]
60: Plant response rating, Oat, Wild [2, 13] | Plant response rating, Velvetleaf [5, 20] | Plant response rating, Barnyardgrass [6, 22] | Plant response rating, Blackgrass [7, 19]
100: Plant response rating, Chickweed [1, 15] | Plant response rating, Kochia (kochia (Kochia scoparia); [15]) | Plant response rating, Galium [3, 19] | Plant response rating, Pigweed [4, 18] | Plant response rating, Pigweed [4, 21] | Plant response rating, Pigweed [4, 22] | Pigweed plant response rating [4, 23] | Plant response rating, Velvetleaf [5, 19] | Plant response rating, Ragweed [10, 19] | Ragweed plant response rating [10, 23] | Plant response rating, Galium [11, 24] | Plant response rating, Galium ([11]; 500 g ai/ha, visual rating after approx. 10 d, 0 to 100 scale (0 no effect, 100 complete control))
10: Plant response rating, Soybean (soybean (Glycine max); [18]) | Plant response rating, Barnyardgrass [6, 17]
85: Plant response rating, Galium [3, 20] | Plant response rating, Pigweed [4, 17] | Plant response rating, Velvetleaf [5, 21] | Plant response rating, Ryegrass, Italian [8, 17] | Nutsedge, Yellow plant response rating [9, 23]
45: Plant response rating, Nutsedge, Yellow [9, 21]
30: Plant response rating, Barnyardgrass [6, 21]
98: Plant response rating, Chickweed [1, 14] | Galium plant response rating [3, 23] | Plant response rating, Pigweed [4, 19] | Plant response rating, Pigweed [4, 20] | Plant response rating, Ragweed [10, 18] | Plant response rating, Ragweed [10, 22]
50: Plant response rating, Blackgrass [7, 18] | Plant response rating, Blackgrass [7, 21]
80: Plant response rating, Ryegrass, Italian [8, 19] | Plant response rating, Blackgrass [12, 24]
95: Chickweed plant response rating [1, 16] | Plant response rating, Kochia (kochia (Kochia scoparia); [13]) | Plant response rating, Kochia (kochia (Kochia scoparia); [14]) | Plant response rating, Galium [3, 17] | Plant response rating, Galium [3, 18] | Plant response rating, Galium [3, 22] | Velvetleaf plant response rating [5, 23] | Ryegrass, Italian plant response rating [8, 23]
15: Plant response rating, Blackgrass [7, 17]
5: Plant response rating, Soybean (soybean (Glycine max); [17])
20: Plant response rating, Barnyardgrass [6, 19] | Plant response rating, Blackgrass [7, 20]
